For orientation: IC50 means the concentration needed to halve the response being measured. Low values mean greater potency in that assay, high ones weaker potency in that assay. Broadly, the Dmax is the largest share of the target that was removed. A high value points to a fuller loss of target.

The experiment deals with BCL6 (Homo sapiens (Human), UniProt P41182). The experiment in a line: Immunofluorescence high content imaging of BCL6 degradation in T47D cells. Type of experiment: cell-based. Conditions: T47D cells. In short, it runs like this: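 T47D cells were treated for 3 days at 37 °C with 11-point 3-fold dilutions of bifunctional degrader (final top 0.1 or 1 μM). BCL6 was detected by immunofluorescence after PFA fixation, with Hoechst and cell mask counterstains, and imaged at 10×, 4 fields/well.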
`CNC(=O)COc1cc2cc(Nc3nc(N4CC5(CC(OC6CCN(c7ccc8c(c7)C(=O)N(C7CCC(=O)NC7=O)C8=O)CC6)C5)C4)ncc3Cl)ccc2n(C(C)C)c1=O` (stereo not drawn) [compound 405, 2-{[6-({5-chloro-2-[6-({1-[2-(2,6-dioxopiperidin-3-yl)-1,3-dioxo-2,3-dihydro-1H-isoindol-5-yl]piperidin-4-yl}oxy)-2-azaspiro[3.3]heptan-2-yl]pyrimidin-4-yl}amino)-2-oxo-1-(propan-2-yl)-1,2-dihydroquinolin-3-yl]oxy}-N-methylacetamide] returned an IC50 of at least 100 nM.
`CNC(=O)COc1cc2cc(Nc3nc(N4CC5(CC(OC6CCN(c7cccc8c7C(=O)N(C7CCC(=O)NC7=O)C8=O)CC6)C5)C4)ncc3Cl)ccc2n(C(C)C)c1=O` (stereo not drawn) [compound 406, 2-{[6-({5-chloro-2-[6-({1-[2-(2,6-dioxopiperidin-3-yl)-1,3-dioxo-2,3-dihydro-1H-isoindol-4-yl]piperidin-4-yl}oxy)-2-azaspiro[3.3]heptan-2-yl]pyrimidin-4-yl}amino)-2-oxo-1-(propan-2-yl)-1,2-dihydroquinolin-3-yl]oxy}-N-methylacetamide] displayed a Dmax of at least 70% and an IC50 of under 10 nM.
In turn, `CNC(=O)COc1cc2cc(Nc3nc(N4CCN(CC5CCN(C(=O)c6cccc(N7CCC(=O)NC7=O)c6)CC5)CC4)ncc3Cl)ccc2n(C(C)C)c1=O` [compound 407, 2-{[6-({5-chloro-2-[4-({1-[3-(2,4-dioxo-1,3-diazinan-1-yl)benzoyl]piperidin-4-yl}methyl)piperazin-1-yl]pyrimidin-4-yl}amino)-2-oxo-1-(propan-2-yl)-1,2-dihydroquinolin-3-yl]oxy}-N-methylacetamide] showed a half-inhibitory concentration (IC50) of at least 100 nM.
In turn, `CNC(=O)COc1cc2cc(Nc3nc(N4CCN(CC5CCN(C(=O)c6ccc(N7CCC(=O)NC7=O)c(OC)c6)CC5)CC4)ncc3Cl)ccc2n(C(C)C)c1=O` [compound 408, 2-{[6-({5-chloro-2-[4-({1-[4-(2,4-dioxo-1,3-diazinan-1-yl)-3-methoxybenzoyl]piperidin-4-yl}methyl)piperazin-1-yl]pyrimidin-4-yl}amino)-2-oxo-1-(propan-2-yl)-1,2-dihydroquinolin-3-yl]oxy}-N-methylacetamide] registered an IC50 of at least 100 nM.
The molecule `CNC(=O)COc1cc2cc(Nc3nc(N4CCC(O[C@H]5C[C@H](N6CCC(c7cccc8c7C(=O)N(C7CCC(=O)NC7=O)C8=O)CC6)C5)CC4)ncc3Cl)ccc2n(C(C)C)c1=O` (stereo partly drawn) [compound 409, 2-({6-[(5-chloro-2-{4-[(1r,3r)-3-{4-[2-(2,6-dioxopiperidin-3-yl)-1,3-dioxo-2,3-dihydro-1H-isoindol-4-yl]piperidin-1-yl}cyclobutoxy]piperidin-1-yl}pyrimidin-4-yl)amino]-2-oxo-1-(propan-2-yl)-1,2-dihydroquinolin-3-yl}oxy)-N-methylacetamide] came in with a Dmax of 50 to 70% and an IC50 of under 10 nM.
Turning to `CNC(=O)COc1cc2cc(Nc3nc(N4CCN(CC5CCC6(CC5)CN(c5ccc(OC)c7c5C(=O)N(C5CCC(=O)NC5=O)C7=O)C6)CC4)ncc3Cl)ccc2n(C(C)C)c1=O` (stereo not drawn) [compound 411, 2-{[6-({5-chloro-2-[4-({2-[2-(2,6-dioxopiperidin-3-yl)-7-methoxy-1,3-dioxo-2,3-dihydro-1H-isoindol-4-yl]-2-azaspiro[3.5]nonan-7-yl}methyl)piperazin-1-yl]pyrimidin-4-yl}amino)-2-oxo-1-(propan-2-yl)-1,2-dihydroquinolin-3-yl]oxy}-N-methylacetamide], the Dmax was under 50% and the concentration for half-maximal inhibition (IC50) is under 10 nM.
`CNC(=O)COc1cc2cc(Nc3nc(N4CCC(OC5CC6(C5)CN(c5ccc7c(c5)CN(C5CCC(=O)NC5=O)C7=O)C6)CC4)ncc3Cl)ccc2n(C(C)C)c1=O` (stereo not drawn) [compound 412, 2-{[6-({5-chloro-2-[4-({2-[2-(2,6-dioxopiperidin-3-yl)-1-oxo-2,3-dihydro-1H-isoindol-5-yl]-2-azaspiro[3.3]heptan-6-yl}oxy)piperidin-1-yl]pyrimidin-4-yl}amino)-2-oxo-1-(propan-2-yl)-1,2-dihydroquinolin-3-yl]oxy}-N-methylacetamide] gave a Dmax of at least 70% and a half-inhibitory concentration (IC50) of under 10 nM.
Take `CNC(=O)COc1cc2cc(Nc3nc(N4CCC5(CC4)CN(CC4CCN(c6ccc7c(c6)CN(C6CCC(=O)NC6=O)C7=O)CC4)C5)ncc3Cl)ccc2n(C(C)C)c1=O` (stereo not drawn) [compound 413, 2-{[6-({5-chloro-2-[2-({1-[2-(2,6-dioxopiperidin-3-yl)-1-oxo-2,3-dihydro-1H-isoindol-5-yl]piperidin-4-yl}methyl)-2,7-diazaspiro[3.5]nonan-7-yl]pyrimidin-4-yl}amino)-2-oxo-1-(propan-2-yl)-1,2-dihydroquinolin-3-yl]oxy}-N-methylacetamide]: the Dmax is 50 to 70% and the IC50 is under 10 nM.
In the case of `CNC(=O)COc1cc2cc(Nc3nc(N4CCN(CC5CCN(c6cc(OC)cc7c6C(=O)N(C6CCC(=O)NC6=O)C7=O)CC5)CC4)ncc3Cl)ccc2n(C(C)C)c1=O` (stereo not drawn) [compound 414, 2-{[6-({5-chloro-2-[4-({1-[2-(2,6-dioxopiperidin-3-yl)-6-methoxy-1,3-dioxo-2,3-dihydro-1H-isoindol-4-yl]piperidin-4-yl}methyl)piperazin-1-yl]pyrimidin-4-yl}amino)-2-oxo-1-(propan-2-yl)-1,2-dihydroquinolin-3-yl]oxy}-N-methylacetamide], the Dmax is at least 70%.
Regarding `CNC(=O)COc1cc2cc(Nc3nc(N4CCC(CN5CCC(c6ccc(N7CCC(=O)NC7=O)c(OC)c6)CC5)CC4)ncc3Cl)ccc2n(C(C)C)c1=O` [compound 415, 2-{[6-({5-chloro-2-[4-({4-[4-(2,4-dioxo-1,3-diazinan-1-yl)-3-methoxyphenyl]piperidin-1-yl}methyl)piperidin-1-yl]pyrimidin-4-yl}amino)-2-oxo-1-(propan-2-yl)-1,2-dihydroquinolin-3-yl]oxy}-N-methylacetamide], the IC50 was at least 100 nM.
In turn, `CNC(=O)COc1cc2cc(Nc3nc(N4CCC(CN5CCC(c6cccc(N7CCC(=O)NC7=O)c6)CC5)CC4)ncc3Cl)ccc2n(C(C)C)c1=O` [compound 416, 2-{[6-({5-chloro-2-[4-({4-[3-(2,4-dioxo-1,3-diazinan-1-yl)phenyl]piperidin-1-yl}methyl)piperidin-1-yl]pyrimidin-4-yl}amino)-2-oxo-1-(propan-2-yl)-1,2-dihydroquinolin-3-yl]oxy}-N-methylacetamide] yielded an IC50 of at least 100 nM.
Turning to `CNC(=O)COc1cc2cc(Nc3nc(N4CCC(CN5CCC6(CC5)CN(c5ccc7c(c5)CN(C5CCC(=O)NC5=O)C7=O)C6)CC4)ncc3Cl)ccc2n(C(C)C)c1=O` (stereo not drawn) [compound 417, 2-{[6-({5-chloro-2-[4-({2-[2-(2,6-dioxopiperidin-3-yl)-1-oxo-2,3-dihydro-1H-isoindol-5-yl]-2,7-diazaspiro[3.5]nonan-7-yl}methyl)piperidin-1-yl]pyrimidin-4-yl}amino)-2-oxo-1-(propan-2-yl)-1,2-dihydroquinolin-3-yl]oxy}-N-methylacetamide], the Dmax was at least 70% and the 50% inhibitory concentration (IC50) was under 10 nM.
On to `CNC(=O)COc1cc2cc(Nc3nc(N4CCC(CN5CCC6(CC5)CN(c5cccc7c5C(=O)N(C5CCC(=O)NC5=O)C7=O)C6)CC4)ncc3Cl)ccc2n(C(C)C)c1=O` (stereo not drawn) [compound 418, 2-{[6-({5-chloro-2-[4-({2-[2-(2,6-dioxopiperidin-3-yl)-1,3-dioxo-2,3-dihydro-1H-isoindol-4-yl]-2,7-diazaspiro[3.5]nonan-7-yl}methyl)piperidin-1-yl]pyrimidin-4-yl}amino)-2-oxo-1-(propan-2-yl)-1,2-dihydroquinolin-3-yl]oxy}-N-methylacetamide], for which the maximal degradation (Dmax) is at least 70% and the IC50 is under 10 nM.
`CNC(=O)COc1cc2cc(Nc3nc(N4CCC(CN5CCC6(CC5)CN(c5cccc(C(=O)NC7CCC(=O)NC7=O)c5F)C6)CC4)ncc3Cl)ccc2n(C(C)C)c1=O` (stereo not drawn) [compound 419, 3-[7-({1-[5-chloro-4-({3-[(methylcarbamoyl)methoxy]-2-oxo-1-(propan-2-yl)-1,2-dihydroquinolin-6-yl}amino)pyrimidin-2-yl]piperidin-4-yl}methyl)-2,7-diazaspiro[3.5]nonan-2-yl]-N-(2,6-dioxopiperidin-3-yl)-2-fluorobenzamide] returned a Dmax of at least 70%.
`CNC(=O)COc1cc2cc(Nc3nc(N4CCC(CN5CCC6(CC5)CN(c5cccc(C(=O)NC7CCC(=O)NC7=O)c5OC)C6)CC4)ncc3Cl)ccc2n(C(C)C)c1=O` (stereo not drawn) [compound 420, 3-[7-({1-[5-chloro-4-({3-[(methylcarbamoyl)methoxy]-2-oxo-1-(propan-2-yl)-1,2-dihydroquinolin-6-yl}amino)pyrimidin-2-yl]piperidin-4-yl}methyl)-2,7-diazaspiro[3.5]nonan-2-yl]-N-(2,6-dioxopiperidin-3-yl)-2-methoxybenzamide]: the maximal degradation (Dmax) is under 50% and the IC50 was in the range of 50 to 100 nM.
`CNC(=O)COc1cc2cc(Nc3nc(N4CCC(OC5CCC6(CC5)CN(c5ccc7c(c5)C(=O)N(C5CCC(=O)NC5=O)C7=O)C6)CC4)ncc3Cl)ccc2n(C(C)C)c1=O` (stereo not drawn) [compound 421, 2-{[6-({5-chloro-2-[4-({2-[2-(2,6-dioxopiperidin-3-yl)-1,3-dioxo-2,3-dihydro-1H-isoindol-5-yl]-2-azaspiro[3.5]nonan-7-yl}oxy)piperidin-1-yl]pyrimidin-4-yl}amino)-2-oxo-1-(propan-2-yl)-1,2-dihydroquinolin-3-yl]oxy}-N-methylacetamide] came in with a Dmax of at least 70% and an IC50 of under 10 nM.
For the molecule `CNC(=O)COc1cc2cc(Nc3nc(N4CC5(CCN(CC6CCN(c7ccc8c(c7)C(=O)N(C7CCC(=O)NC7=O)C8=O)CC6)CC5)C4)ncc3Cl)ccc2n(C(C)C)c1=O` (stereo not drawn) [compound 422, 2-{[6-({5-chloro-2-[7-({1-[2-(2,6-dioxopiperidin-3-yl)-1,3-dioxo-2,3-dihydro-1H-isoindol-5-yl]piperidin-4-yl}methyl)-2,7-diazaspiro[3.5]nonan-2-yl]pyrimidin-4-yl}amino)-2-oxo-1-(propan-2-yl)-1,2-dihydroquinolin-3-yl]oxy}-N-methylacetamide], the Dmax was in the range of 50 to 70% and the 50% inhibitory concentration (IC50) is under 10 nM.

Source of the values: patent US12310975B2, “Modulators of BCL6 proteolysis and associated methods of use” (Arvinas Operations, Inc., priority 2019, dated 2025).
